The results in this text go back to publication PMC6537702, “Design, synthesis, molecular modelling, and biological evaluation of novel substituted pyrimidine derivatives as potential anticancer agents for hepatocellular carcinoma” (Journal of Enzyme Inhibition and Medicinal Chemistry, 2019).

≈ marks a conversion by molar mass, not a printed value. Where two headings read alike, the source gives them in different places.

In data set [1] the test system is caspase 3/7 activity in Huh-7 cells. The experiment in a line: Caspase-Glo 3/7 assay, Huh-7. The class given is cell-based, human. The note with it: 24 h incubation; 2 IC50, IC50, ½ IC50; vs DMSO solvent control; p < .05, n = 3.
Another data set has as its system Huh-7 cell line. The experiment in a line: Resazurin cell growth inhibition assay, Huh-7. The format is cell-based, human. The note with it: Homo sapiens. An excerpt: (§1) All compounds 2a-e, 3a-d, and PPAD’s 4a-t were subjected to a screening system for evaluation of their anticancer activity against cell line of human cancer, namely liver (HepG2 and Huh-7) cancer and normal fibroblast cells obtained from the German Cancer Research Center (DKFZ), following the Resazurin Cell Growth Inhibition Assay[45] in comparison to the standard treatment using DOX (see Supplementary).
(§2) Cell culture and treatment
(§3) All reagents were handled in a sterile fume hood. DMEM medium, and fetal bovine serum (FBS) were purchased from Gibco;phosphate-buffered saline pH 7.4 (PBS) and trypsin-EDTA were obtained from Sigmae Aldrich. Alamar Blue or Resazurin (Promega,Mannheim, Germany) reduction assay was used to assess the cytotoxicity of the studied samples. The growth medium (DMEMmedium with 10% FBS, 10 0 U/mL penicillin, and 10 0 mg/L streptomycin), and alamar blue were stored at 48 C, while trypsineEDTA and FBS were stored frozen at 208C and thawed before use; PBS was stored at room temperature. The Hep-G2, Huh-7 and normal fibroblast cells were obtained from the German Cancer Research Center (DKFZ).Cells were cultured in 50 cm2 culture flask s (Corning) using DMEM medium supplemented with 10% FBS, penicillin (10 0 IU/mL), and streptomycin ([…]). The culture was maintained at 37 C atmosphere of 5% CO2 and 95% relative humidity. The cells were transferred to a new fl ask every 2 days and treated with trypsineEDTA to detach them from the flask . Cells were counted under a microscope using a hemacytometer (Hausser Scientific).Cell solutions were diluted with growth medium to a concentration of 1 *10^5 cells/mL and transferred to a 96-well plate, and treated with gradient concentrations of test compounds.
(§4) Resazurin cell growth inhibition assay
(§5) Alamar Blue or Resazurin (Promega, Mannheim, Germany) reduction assay was used to assess the cytotoxicity of the studied samples. The assay tests cellular viability and mitochondrial function. Briefly y, adherent cells were grown in tissue culture flask s, and then harvested by treating the fl asks with 0.025% trypsin and0.25 mM EDTA for 5 min. Once detached, cells were washed, counted and an aliquot (5 * 103cells) was placed in each well of a96-well cell culture plate in a total volume of […]. Cells were allowed to attach overnight and then treated with samples. The final concentration of samples ranged from 0 to 10 0 mM. After 4 8 h,[…] Resazurin 0.01% w/v solution was added to each well and the plates were incubated at 37C for 1 -2 h. Fluorescence was measured on an automated 96-well Infinite M2000 ProTM plate reader (Tecan, Crailsheim, Germany) using an excit ation wave-length of 54 4 nm and an emission wavelength of 590 nm. Doxorubicin was used as positive control. Each assay was done at least three times, with two replicates each. The viability was compared based on a comparison with untreated cells. IC50(on cancer cells) were the concentration of sample required to inhibit 50% of the cell proliferation and were calculated from a calibration curve by a linear regression using Microsoft Excel

Data set [2] in a line: Resazurin cell growth inhibition assay, normal fibroblast cells. Particulars: M ± SEM of three independent experiments, read-out: Cytotoxic activity IC50, Fibroblast. The class given is cell-based.
Description: as §1, §2, §3, §4, §5

Another data set has as its system HepG2 cell line. The experiment in a line: Resazurin cell growth inhibition assay, HepG2. Particulars: Homo sapiens. The format is cell-based, human.
Description: as §1, §2, §3, §4, §5
A general note: Alamar Blue is a resazurin reagent that responds to reducing activity.

For data set [3], the system named is caspase 3/7 activity in HepG2 cells. The data set can be described thus: Caspase-Glo 3/7 assay, HepG2. The class given is cell-based, human. Particulars: 24 h incubation; 2 IC50, IC50, ½ IC50; vs DMSO solvent control; p < .05, n = 3.
Description: The influence of our test samples on caspase 3/7 activity in liver cancer cells (HepG2 cells) was detected using Caspase-Glo 3/7 Assay kit (Promega, Madison, WI) as previously described[45] (see Supplementary).
as §2, §3, §4
Alamar Blue or Resazurin (Promega, Mannheim, Germany) reduction assay was used to assess the cytotoxicity of the studied samples. The assay tests cellular viability and mitochondrial function. Briefly y, adherent cells were grown in tissue culture flask s, and then harvested by treating the fl asks with 0.025% trypsin and0.25 mM EDTA for 5 min. Once detached, cells were washed, counted and an aliquot (5 * 103cells) was placed in each well of a96-well cell culture plate in a total volume of […]. Cells were allowed to attach overnight and then treated with samples. The final concentration of samples ranged from 0 to 10 0 mM. […] Fluorescence was measured on an automated 96-well Infinite M2000 ProTM plate reader (Tecan, Crailsheim, Germany) using an excit ation wave-length of 54 4 nm and an emission wavelength of 590 nm. […]
The influence of our test samples on cas pase 3/7 activity in […] was detected using Caspase -Glo 3/7 Assay kit (Promega). […] Luminescence was measured using well Infinite M2000 Pro TM instrument (Tecan).Caspase 3/7 activity was expressed as percentage of the unt reated

Where [4] appears, read: Huh-7, 48 h, resazurin assay, 48 h, M ± SEM of three independent experiments, read-out: Cytotoxic activity IC50, Huh-7 cell line.
Where [5] appears, read: HepG2, 48 h, resazurin assay, 48 h, M ± SEM of three independent experiments, read-out: Cytotoxic activity IC50, HepG2 cell line.
The mark [6] stands for this setting: HepG2, converted from μg/mL, read-out: IC50 against HepG2 cell line, equivalent in μM.
Where [7] appears, read: Huh-7, converted from μg/mL, read-out: IC50 against Huh-7 cell line, equivalent in μM.

What is called IC50 is the point on the concentration scale where inhibition reaches its midpoint. A word on the melting point: it is the temperature, or range, at which the solid turns liquid. As to `CN(C)c1ccc(-c2nc(N3N=C(c4c5ccccc5cc5ccccc45)CC3c3ccc(F)cc3)[nH]c(=O)c2C#N)cc1` (stereo not drawn) [Compound 4q, 2-[3-Anthracene-9-yl-5–(4-fluoro-phenyl)-4,5-dihydro-pyrazol-1-yl]-4–(4-dimethylamino-phenyl)-6-oxo-1,6-dihydro-pyrimidine-5-carbonitrile], the melting point lay within 182 to 184 °C. The “activation of caspase 3/7, Huh-7 cell line” value (from here on “activation … Huh-7 cell line”) in data set [1] is on record as “significant increase”. The IC50 with Huh-7 cell line (setting [4]) is 8.66 ± 1.52 µg/mL. For the same compound, the IC50 at 48 h in data set [2] is 34.3 ± 6.42 µg/mL (≈ 59.3 µM). For the same compound, the IC50 in the data set on HepG2 cell line (setting [5]) was 6.85 ± 0.85 µg/mL. Also, the IC50 in the data set on HepG2 cell line (setting [6]) came to 11.8 µM. In data set [3], the “activation of caspase 3/7, HepG2 cell line” value (from here on “activation … HepG2 cell line”) was “significant increase”.

Turning to `N#Cc1c(-c2c[nH]c3ccccc23)nc(N2N=C(c3c4ccccc4cc4ccccc34)CC2c2ccc(F)cc2)[nH]c1=O` (stereo not drawn) [Compound 4i, 2-[3-Anthracene-9-yl-5–(4-fluoro-phenyl)-4,5-dihydro-pyrazol-1-yl]-4-(1H-indol-3-yl)-6-oxo-1,6-dihydro-pyrimidine-5-carbonitrile], the melting point lay within 184 to 185 °C. The “activation … Huh-7 cell line” value in data set [1] is on record as “significant increase”. The IC50 with Huh-7 cell line (setting [4]) was 6.47 ± 0.41 µg/mL. Besides, in the data set with Huh-7 cell line (setting [7]), the IC50 was determined as 11.2 µM. Moreover, the IC50 at 48 h in data set [2] amounted to 31.4 ± 2.07 µg/mL (≈ 54.7 µM). Also, in the data set on HepG2 cell line (setting [5]), the IC50 amounted to 9.54 ± 1.24 µg/mL. Moreover, the “activation … HepG2 cell line” value in data set [3] is “significant increase”.

As for `COc1cc(-c2nc(N3N=C(c4c5ccccc5cc5ccccc45)CC3c3ccc(F)cc3)[nH]c(=O)c2C#N)cc(OC)c1OC` (stereo not drawn) [Compound 4m, 2-[3-Anthracene-9-yl-5–(4-fluoro-phenyl)-4,5-dihydro-pyrazol-1-yl]-6-oxo-4–(3,4,5-trimethoxy-phenyl)-1,6-dihydro-pyrimidine-5-carbonitrile], the melting point is 148 to 150 °C. Further, the “activation … Huh-7 cell line” value in data set [1] is “significant increase”. In the data set on Huh-7 cell line (setting [4]), the IC50 is 7.5 ± 0.98 µg/mL. The IC50 at 48 h in data set [2] amounted to 24.1 ± 4.34 µg/mL (≈ 38.6 µM). Moreover, the IC50 with HepG2 cell line (setting [5]) is 8.12 ± 1.82 µg/mL. Besides, the “activation … HepG2 cell line” value in data set [3] was “significant increase”.

`N#Cc1c(-c2ccc(F)cc2)nc(N2N=C(c3c4ccccc4cc4ccccc34)CC2c2ccc(F)cc2)[nH]c1=O` (stereo not drawn) [Compound 4e, 2-[3-Anthracene-9-yl-5–(4-fluoro-phenyl)-4,5-dihydro-pyrazol-1-yl]-4–(4-fluoro-phenyl)-6-oxo-1,6-dihydro-pyrimidine-5-carbonitrile]: the “activation … Huh-7 cell line” value in data set [1] was “significant increase”. Moreover, the IC50 with Huh-7 cell line (setting [4]) is 6.13 ± 1.01 µg/mL; in the data set on Huh-7 cell line (setting [7]), 11.1 µM; in the data set on HepG2 cell line (setting [5]), 5.34 ± 0.21 µg/mL; in the data set with HepG2 cell line (setting [6]) it was 9.6 µM. The IC50 at 48 h in data set [2] was 24.1 ± 4.63 µg/mL (≈ 43.6 µM). For the same compound, in data set [3], the “activation … HepG2 cell line” value is reported as “significant increase”.
